{
  "source": "patent US20260262643A1",
  "about": "“HERBICIDAL BENZOXAZINES” (FMC CORPORATION, priority 2022, published 2026)",
  "key": {"wheat [1]": {"system": "wheat", "experiment": "Test A preemergence", "format": "in vivo, Triticum aestivum", "outline": "(§1)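 Loam/sand soil; pre-em directed soil spray at planting, post-em spray at 1–2 leaf (2–10 cm). Compound in non-phytotoxic solvent + surfactant. Greenhouse 10 d; visual injury vs untreated, 0 = no effect, 100 = complete control.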"}, "kochia [2]": {"system": "kochia", "experiment": "Test A preemergence", "format": "in vivo, Bassia scoparia", "outline": "as §1"}, "blackgrass [3]": {"system": "blackgrass", "experiment": "Test A preemergence", "format": "in vivo, Alopecurus myosuroides", "outline": "as §1"}, "rice": {"system": "rice", "experiment": "Test B flooded paddy test", "format": "in vivo, Oryza sativa", "conditions": "250 g ai/ha, Flood, 13 days, 0 to 100 scale (0 no effect, 100 complete control)", "outline": "(§2)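 Compound is introduced into paddy water covering soil by 3 cm, treating plants that have reached two leaves. Pots are kept flooded at that depth under greenhouse conditions. Assessment at 13 days gives a 0–100 visual control score.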"}, "ryegrass, Italian [4]": {"system": "ryegrass, Italian", "experiment": "Test A postemergence", "format": "in vivo, Lolium multiflorum", "conditions": "postemergence, 10 days", "outline": "as §1"}, "foxtail, giant [5]": {"system": "foxtail, giant", "experiment": "Test A preemergence", "format": "in vivo, Setaria faberi", "outline": "as §1"}, "pigweed, palmer [6]": {"system": "pigweed, palmer", "experiment": "Test A preemergence", "format": "in vivo, Amaranthus palmeri", "outline": "as §1"}, "corn [7]": {"system": "corn", "experiment": "Test A postemergence", "format": "in vivo, Zea mays", "conditions": "postemergence, 10 days", "outline": "as §1"}, "blackgrass [8]": {"system": "blackgrass", "experiment": "Test A postemergence", "format": "in vivo, Alopecurus myosuroides", "conditions": "postemergence, 10 days", "outline": "as §1"}, "barnyardgrass": {"system": "barnyardgrass", "experiment": "Test B flooded paddy test", "format": "in vivo, Echinochloa crus-galli", "conditions": "250 g ai/ha, Flood, 13 days, 0 to 100 scale (0 no effect, 100 complete control)", "outline": "as §2"}, "horseweed": {"system": "horseweed", "experiment": "Test A postemergence", "format": "in vivo, Erigeron canadensis", "conditions": "postemergence, 10 days", "outline": "as §1"}, "kochia [9]": {"system": "kochia", "experiment": "Test A postemergence", "format": "in vivo, Bassia scoparia", "conditions": "postemergence, 10 days", "outline": "as §1"}, "wheat [10]": {"system": "wheat", "experiment": "Test A postemergence", "format": "in vivo, Triticum aestivum", "conditions": "postemergence, 10 days", "outline": "as §1"}, "corn [11]": {"system": "corn", "experiment": "Test A preemergence", "format": "in vivo, Zea mays", "outline": "as §1"}, "soybean [12]": {"system": "soybean", "experiment": "Test A preemergence", "format": "in vivo, Glycine max", "outline": "as §1"}, "ragweed [13]": {"system": "ragweed", "experiment": "Test A preemergence", "format": "in vivo, Ambrosia artemisiifolia", "outline": "as §1"}, "goosegrass [14]": {"system": "goosegrass", "experiment": "Test A preemergence", "format": "in vivo, Eleusine indica", "outline": "as §1"}, "oat, wild [15]": {"system": "oat, wild", "experiment": "Test A postemergence", "format": "in vivo, Avena fatua", "conditions": "postemergence, 10 days", "outline": "as §1"}, "ducksalad": {"system": "ducksalad", "experiment": "Test B flooded paddy test", "format": "in vivo, Heteranthera limosa", "conditions": "250 g ai/ha, Flood, 13 days, 0 to 100 scale (0 no effect, 100 complete control)", "outline": "as §2"}, "pigweed, palmer [16]": {"system": "pigweed, palmer", "experiment": "Test A postemergence", "format": "in vivo, Amaranthus palmeri", "conditions": "postemergence, 10 days", "outline": "as §1"}, "goosegrass [17]": {"system": "goosegrass", "experiment": "Test A postemergence", "format": "in vivo, Eleusine indica", "conditions": "postemergence, 10 days", "outline": "as §1"}, "ragweed [18]": {"system": "ragweed", "experiment": "Test A postemergence", "format": "in vivo, Ambrosia artemisiifolia", "conditions": "postemergence, 10 days", "outline": "as §1"}, "sedge, umbrella": {"system": "sedge, umbrella", "experiment": "Test B flooded paddy test", "format": "in vivo, Cyperus difformis", "conditions": "250 g ai/ha, Flood, 13 days, 0 to 100 scale (0 no effect, 100 complete control)", "outline": "as §2"}, "foxtail, giant [19]": {"system": "foxtail, giant", "experiment": "Test A postemergence", "format": "in vivo, Setaria faberi", "conditions": "postemergence, 10 days", "outline": "as §1"}, "soybean [20]": {"system": "soybean", "experiment": "Test A postemergence", "format": "in vivo, Glycine max", "conditions": "postemergence, 10 days", "outline": "as §1"}, "ryegrass, Italian [21]": {"system": "ryegrass, Italian", "experiment": "Test A preemergence", "format": "in vivo, Lolium multiflorum", "outline": "as §1"}, "oat, wild [22]": {"system": "oat, wild", "experiment": "Test A preemergence", "format": "in vivo, Avena fatua", "outline": "as §1"}, "[23]": {"conditions": "125 g ai/ha, visual injury after 10 days, 0 to 100 scale, 0 is no effect, 100 is complete control"}, "[24]": {"conditions": "500 g ai/ha, 0 to 100 scale (0 no effect, 100 complete control), 10 days"}, "[25]": {"conditions": "125 g ai/ha, 0 to 100 scale, 0 no effect, 100 complete control"}, "[26]": {"conditions": "500 g ai/ha, visual injury, 0 to 100 scale (0 no effect, 100 complete control)"}},
  "data": [
    {"compound": "C[C@H]1CN(C(=O)c2cc(Cl)cc(-n3cncn3)c2)c2cccc(Cl)c2O1", "note": "[Compound 81]", "values": [
      {"measurement": "Plant response rating, Wheat", "setting": "wheat [1]; [23]", "value": 10},
      {"measurement": "Plant response rating, Wheat", "setting": "wheat [1]; [24]", "value": 10},
      {"measurement": "Plant response rating, Kochia", "setting": "kochia [2]; [23]", "value": 0},
      {"measurement": "Plant response rating, Kochia", "setting": "kochia [2]; [24]", "value": 30},
      {"measurement": "Plant response rating, Blackgrass", "setting": "blackgrass [3]; [23]", "value": 30},
      {"measurement": "Plant response rating, Blackgrass", "setting": "blackgrass [3]; [24]", "value": 60},
      {"measurement": "Plant response rating, Rice", "setting": "rice", "value": 0},
      {"measurement": "Ryegrass, Italian plant response rating", "setting": "ryegrass, Italian [4]; [25]", "value": 30},
      {"measurement": "Plant response rating, Ryegrass, Italian", "setting": "ryegrass, Italian [4]; [26]", "value": 100},
      {"measurement": "Plant response rating, Foxtail, Giant", "setting": "foxtail, giant [5]; [23]", "value": 20},
      {"measurement": "Plant response rating, Foxtail, Giant", "setting": "foxtail, giant [5]; [24]", "value": 90},
      {"measurement": "Plant response rating, Pigweed, Palmer", "setting": "pigweed, palmer [6]; [23]", "value": 30},
      {"measurement": "Plant response rating, Pigweed, Palmer", "setting": "pigweed, palmer [6]; [24]", "value": 80},
      {"measurement": "Corn plant response rating", "setting": "corn [7]; [25]", "value": 0},
      {"measurement": "Plant response rating, Corn", "setting": "corn [7]; [26]", "value": 50},
      {"measurement": "Blackgrass plant response rating", "setting": "blackgrass [8]; [25]", "value": 0},
      {"measurement": "Plant response rating, Blackgrass", "setting": "blackgrass [8]; [26]", "value": 60},
      {"measurement": "Plant response rating, Barnyardgrass", "setting": "barnyardgrass", "value": 0},
      {"measurement": "Horseweed plant response rating", "setting": "horseweed; [25]", "value": 0},
      {"measurement": "Plant response rating, Horseweed", "setting": "horseweed; [26]", "value": 0},
      {"measurement": "Kochia plant response rating", "setting": "kochia [9]; [25]", "value": 50},
      {"measurement": "Plant response rating, Kochia", "setting": "kochia [9]; [26]", "value": 90},
      {"measurement": "Wheat plant response rating", "setting": "wheat [10]; [25]", "value": 10},
      {"measurement": "Plant response rating, Wheat", "setting": "wheat [10]; [26]", "value": 20},
      {"measurement": "Plant response rating, Corn", "setting": "corn [11]; [23]", "value": 0},
      {"measurement": "Plant response rating, Corn", "setting": "corn [11]; [24]", "value": 0},
      {"measurement": "Plant response rating, Soybean", "setting": "soybean [12]; [23]", "value": 0},
      {"measurement": "Plant response rating, Soybean", "setting": "soybean [12]; [24]", "value": 0},
      {"measurement": "Plant response rating, Ragweed", "setting": "ragweed [13]; [23]", "value": 0},
      {"measurement": "Plant response rating, Ragweed", "setting": "ragweed [13]; [24]", "value": 0},
      {"measurement": "Plant response rating, Goosegrass", "setting": "goosegrass [14]; [23]", "value": 70},
      {"measurement": "Plant response rating, Goosegrass", "setting": "goosegrass [14]; [24]", "value": 90},
      {"measurement": "Oat, Wild plant response rating", "setting": "oat, wild [15]; [25]", "value": 10},
      {"measurement": "Plant response rating, Oat, Wild", "setting": "oat, wild [15]; [26]", "value": 20},
      {"measurement": "Plant response rating, Ducksalad", "setting": "ducksalad", "value": 0},
      {"measurement": "Pigweed, Palmer plant response rating", "setting": "pigweed, palmer [16]; [25]", "value": 60},
      {"measurement": "Plant response rating, Pigweed, Palmer", "setting": "pigweed, palmer [16]; [26]", "value": 90},
      {"measurement": "Goosegrass plant response rating", "setting": "goosegrass [17]; [25]", "value": 10},
      {"measurement": "Plant response rating, Goosegrass", "setting": "goosegrass [17]; [26]", "value": 30},
      {"measurement": "Ragweed plant response rating", "setting": "ragweed [18]; [25]", "value": 20},
      {"measurement": "Plant response rating, Ragweed", "setting": "ragweed [18]; [26]", "value": 20},
      {"measurement": "Plant response rating, Sedge, Umbrella", "setting": "sedge, umbrella", "value": 0},
      {"measurement": "Foxtail, Giant plant response rating", "setting": "foxtail, giant [19]; [25]", "value": 20},
      {"measurement": "Plant response rating, Foxtail, Giant", "setting": "foxtail, giant [19]; [26]", "value": 90},
      {"measurement": "Soybean plant response rating", "setting": "soybean [20]; [25]", "value": 100},
      {"measurement": "Plant response rating, Soybean", "setting": "soybean [20]; [26]", "value": 100},
      {"measurement": "Plant response rating, Ryegrass, Italian", "setting": "ryegrass, Italian [21]; [23]", "value": 50},
      {"measurement": "Plant response rating, Ryegrass, Italian", "setting": "ryegrass, Italian [21]; [24]", "value": 80},
      {"measurement": "Plant response rating, Oat, Wild", "setting": "oat, wild [22]; [23]", "value": 50},
      {"measurement": "Plant response rating, Oat, Wild", "setting": "oat, wild [22]; [24]", "value": 80}
    ]}
  ]
}
